Data published in the NIST ThermoML archive (doi:10.1021/je060271a).
± gives the expanded uncertainty stated by the source.

Settings: 303.15 K, Liquid, Vibrating tube method

Structure (SMILES): CCCCC(=O)OCC(COC(=O)CCCC)(COC(=O)CCCC)COC(=O)CCCC [pentaerythritol tetrapentanoate]
- mass density (24416 kPa): 1025.8 ± 1.2 kg/m3
- mass density (24455 kPa): 1025.9 ± 1.2 kg/m3
- mass density (24486 kPa): 1025.8 ± 1.2 kg/m3
- mass density (24518 kPa): 1026 ± 1.2 kg/m3
- mass density (24556 kPa): 1025.8 ± 1.2 kg/m3
- mass density (24588 kPa): 1025.8 ± 1.2 kg/m3
- mass density (24618 kPa): 1026.1 ± 1.2 kg/m3
- mass density (24648 kPa): 1025.9 ± 1.2 kg/m3
- mass density (24685 kPa): 1026.1 ± 1.2 kg/m3
- mass density (24717 kPa): 1026 ± 1.2 kg/m3
- mass density (24757 kPa): 1026 ± 1.2 kg/m3
- mass density (24790 kPa): 1025.9 ± 1.2 kg/m3
- mass density (24823 kPa): 1026.1 ± 1.2 kg/m3
- mass density (24863 kPa): 1026.1 ± 1.2 kg/m3
- mass density (24893 kPa): 1026.2 ± 1.2 kg/m3
- mass density (24922 kPa): 1026 ± 1.2 kg/m3
- mass density (24956 kPa): 1026.1 ± 1.2 kg/m3
- mass density (24986 kPa): 1026.1 ± 1.2 kg/m3
- mass density (25015 kPa): 1026.2 ± 1.2 kg/m3
- mass density (25045 kPa): 1026.1 ± 1.2 kg/m3
- mass density (25080 kPa): 1026.2 ± 1.2 kg/m3
- mass density (25109 kPa): 1026.2 ± 1.2 kg/m3
- mass density (25144 kPa): 1026.2 ± 1.2 kg/m3
- mass density (25174 kPa): 1026.2 ± 1.2 kg/m3
- mass density (25203 kPa): 1026.3 ± 1.2 kg/m3
- mass density (25233 kPa): 1026.4 ± 1.2 kg/m3
- mass density (25269 kPa): 1026.3 ± 1.2 kg/m3
- mass density (25298 kPa): 1026.2 ± 1.2 kg/m3
- mass density (25328 kPa): 1026.3 ± 1.2 kg/m3
- mass density (25364 kPa): 1026.3 ± 1.2 kg/m3
- mass density (25394 kPa): 1026.4 ± 1.2 kg/m3
- mass density (25430 kPa): 1026.2 ± 1.2 kg/m3
- mass density (25460 kPa): 1026.4 ± 1.2 kg/m3
- mass density (25490 kPa): 1026.3 ± 1.2 kg/m3
- mass density (25527 kPa): 1026.3 ± 1.2 kg/m3
- mass density (25558 kPa): 1026.5 ± 1.2 kg/m3
- mass density (25588 kPa): 1026.4 ± 1.2 kg/m3
- mass density (25624 kPa): 1026.5 ± 1.2 kg/m3
- mass density (25654 kPa): 1026.6 ± 1.2 kg/m3
- mass density (25686 kPa): 1026.6 ± 1.2 kg/m3
- mass density (25753 kPa): 1026.5 ± 1.2 kg/m3
- mass density (25785 kPa): 1026.6 ± 1.2 kg/m3
- mass density (25816 kPa): 1026.6 ± 1.2 kg/m3
- mass density (25854 kPa): 1026.6 ± 1.2 kg/m3
- mass density (25885 kPa): 1026.7 ± 1.2 kg/m3
- mass density (25916 kPa): 1026.7 ± 1.2 kg/m3
- mass density (25954 kPa): 1026.8 ± 1.2 kg/m3
- mass density (25985 kPa): 1026.7 ± 1.2 kg/m3
- mass density (26023 kPa): 1026.6 ± 1.2 kg/m3
- mass density (26054 kPa): 1026.7 ± 1.2 kg/m3
- mass density (26086 kPa): 1026.8 ± 1.2 kg/m3
- mass density (26119 kPa): 1026.7 ± 1.2 kg/m3
- mass density (26157 kPa): 1026.8 ± 1.2 kg/m3
- mass density (26190 kPa): 1026.8 ± 1.2 kg/m3
- mass density (26222 kPa): 1027 ± 1.2 kg/m3
- mass density (26261 kPa): 1026.9 ± 1.2 kg/m3
- mass density (26294 kPa): 1026.9 ± 1.2 kg/m3
- mass density (26326 kPa): 1027 ± 1.2 kg/m3
- mass density (26365 kPa): 1027 ± 1.2 kg/m3
- mass density (26398 kPa): 1026.9 ± 1.2 kg/m3
- mass density (26431 kPa): 1027 ± 1.2 kg/m3
- mass density (26469 kPa): 1027 ± 1.2 kg/m3
- mass density (26503 kPa): 1027 ± 1.2 kg/m3
- mass density (26536 kPa): 1027 ± 1.2 kg/m3
- mass density (26575 kPa): 1027.2 ± 1.2 kg/m3
- mass density (26609 kPa): 1027 ± 1.2 kg/m3
- mass density (26642 kPa): 1027 ± 1.2 kg/m3
- mass density (26686 kPa): 1027.2 ± 1.2 kg/m3
- mass density (26712 kPa): 1027.1 ± 1.2 kg/m3
- mass density (26753 kPa): 1027.2 ± 1.2 kg/m3
- mass density (26787 kPa): 1027.1 ± 1.2 kg/m3
- mass density (26822 kPa): 1027.2 ± 1.2 kg/m3
- mass density (26863 kPa): 1027.3 ± 1.2 kg/m3
- mass density (26897 kPa): 1027.2 ± 1.2 kg/m3
- mass density (26931 kPa): 1027.2 ± 1.2 kg/m3
- mass density (26966 kPa): 1027.3 ± 1.2 kg/m3
- mass density (27007 kPa): 1027.3 ± 1.2 kg/m3
- mass density (27042 kPa): 1027.2 ± 1.2 kg/m3
- mass density (27077 kPa): 1027.3 ± 1.2 kg/m3
- mass density (27119 kPa): 1027.3 ± 1.2 kg/m3
- mass density (27156 kPa): 1027.3 ± 1.2 kg/m3
- mass density (27191 kPa): 1027.3 ± 1.2 kg/m3
- mass density (27233 kPa): 1027.5 ± 1.2 kg/m3
- mass density (27268 kPa): 1027.3 ± 1.2 kg/m3
- mass density (27303 kPa): 1027.5 ± 1.2 kg/m3
- mass density (27338 kPa): 1027.4 ± 1.2 kg/m3
- mass density (27381 kPa): 1027.4 ± 1.2 kg/m3
- mass density (27416 kPa): 1027.6 ± 1.2 kg/m3
- mass density (27452 kPa): 1027.5 ± 1.2 kg/m3
- mass density (27495 kPa): 1027.6 ± 1.2 kg/m3
- mass density (27531 kPa): 1027.5 ± 1.2 kg/m3
- mass density (27574 kPa): 1027.6 ± 1.2 kg/m3
- mass density (27611 kPa): 1027.7 ± 1.2 kg/m3
- mass density (27647 kPa): 1027.7 ± 1.2 kg/m3
- mass density (27683 kPa): 1027.6 ± 1.2 kg/m3
- mass density (27727 kPa): 1027.6 ± 1.2 kg/m3
- mass density (27763 kPa): 1027.7 ± 1.2 kg/m3
- mass density (27800 kPa): 1027.6 ± 1.2 kg/m3
- mass density (27844 kPa): 1027.8 ± 1.2 kg/m3
- mass density (27881 kPa): 1027.8 ± 1.2 kg/m3
- mass density (27919 kPa): 1027.7 ± 1.2 kg/m3
- mass density (27964 kPa): 1027.8 ± 1.2 kg/m3
- mass density (28003 kPa): 1027.8 ± 1.2 kg/m3
- mass density (28041 kPa): 1027.8 ± 1.2 kg/m3
- mass density (28089 kPa): 1027.9 ± 1.2 kg/m3
- mass density (28128 kPa): 1027.9 ± 1.2 kg/m3
- mass density (28160 kPa): 1027.9 ± 1.2 kg/m3
- mass density (28193 kPa): 1027.8 ± 1.2 kg/m3
- mass density (28221 kPa): 1027.9 ± 1.2 kg/m3
- mass density (28249 kPa): 1028 ± 1.2 kg/m3
- mass density (28282 kPa): 1028 ± 1.2 kg/m3
- mass density (28310 kPa): 1028 ± 1.2 kg/m3
- mass density (28338 kPa): 1028 ± 1.2 kg/m3
- mass density (28366 kPa): 1028 ± 1.2 kg/m3
- mass density (28399 kPa): 1028 ± 1.2 kg/m3
- mass density (28427 kPa): 1027.9 ± 1.2 kg/m3
- mass density (28461 kPa): 1028.1 ± 1.2 kg/m3
- mass density (28489 kPa): 1028 ± 1.2 kg/m3
- mass density (28518 kPa): 1028.1 ± 1.2 kg/m3
- mass density (28546 kPa): 1028.1 ± 1.2 kg/m3
- mass density (28580 kPa): 1028 ± 1.2 kg/m3
- mass density (28609 kPa): 1028.1 ± 1.2 kg/m3
- mass density (28638 kPa): 1028.2 ± 1.2 kg/m3
- mass density (28672 kPa): 1028.1 ± 1.2 kg/m3
- mass density (28700 kPa): 1028.2 ± 1.2 kg/m3
- mass density (28729 kPa): 1028.2 ± 1.2 kg/m3
- mass density (28764 kPa): 1028.3 ± 1.2 kg/m3
- mass density (28792 kPa): 1028.2 ± 1.2 kg/m3
- mass density (28821 kPa): 1028.3 ± 1.2 kg/m3
- mass density (28856 kPa): 1028.3 ± 1.2 kg/m3
- mass density (28885 kPa): 1028.5 ± 1.2 kg/m3
- mass density (28915 kPa): 1028.3 ± 1.2 kg/m3
- mass density (28950 kPa): 1028.4 ± 1.2 kg/m3
- mass density (28978 kPa): 1028.3 ± 1.2 kg/m3
- mass density (29008 kPa): 1028.4 ± 1.2 kg/m3
- mass density (29043 kPa): 1028.4 ± 1.2 kg/m3
- mass density (29072 kPa): 1028.4 ± 1.2 kg/m3
- mass density (29102 kPa): 1028.5 ± 1.2 kg/m3
- mass density (29132 kPa): 1028.5 ± 1.2 kg/m3
- mass density (29168 kPa): 1028.4 ± 1.2 kg/m3
- mass density (29198 kPa): 1028.4 ± 1.2 kg/m3
- mass density (29228 kPa): 1028.5 ± 1.2 kg/m3
- mass density (29264 kPa): 1028.6 ± 1.2 kg/m3
- mass density (29294 kPa): 1028.6 ± 1.2 kg/m3
- mass density (29325 kPa): 1028.5 ± 1.2 kg/m3
- mass density (29356 kPa): 1028.5 ± 1.2 kg/m3
- mass density (29392 kPa): 1028.5 ± 1.2 kg/m3
- mass density (29422 kPa): 1028.6 ± 1.2 kg/m3
- mass density (29453 kPa): 1028.6 ± 1.2 kg/m3
- mass density (29483 kPa): 1028.6 ± 1.2 kg/m3
- mass density (29520 kPa): 1028.7 ± 1.2 kg/m3
- mass density (29550 kPa): 1028.7 ± 1.2 kg/m3
- mass density (29587 kPa): 1028.7 ± 1.2 kg/m3
- mass density (29617 kPa): 1028.6 ± 1.2 kg/m3
- mass density (29648 kPa): 1028.8 ± 1.2 kg/m3
- mass density (29684 kPa): 1028.7 ± 1.2 kg/m3
- mass density (29716 kPa): 1028.7 ± 1.2 kg/m3
- mass density (29749 kPa): 1028.8 ± 1.2 kg/m3
- mass density (29779 kPa): 1028.8 ± 1.2 kg/m3
- mass density (29810 kPa): 1028.8 ± 1.2 kg/m3
